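Step 1: Grow cells in 96-well plates. Step 2: Expose to compound for 48 hours at 5 concentrations. Step 3: Interpolate endpoints linearly; if unreached, use highest concentration. GI50 = concentration required for 50% inhibition of growth.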 The source made the active and inactive calls. Rule as the data show it: active = GI50 up to about 1.1 µM and inactive = higher.
Columns and labels:
Test in all cases: inhibition of tumour cell growth, NCI panel, 48 h
[1] = test system: NCI-H226
[2] = test system: HT-29
[3] = test system: SNB-75
[4] = test system: NCI-H460
[5] = test system: HCT-116
[6] = test system: CAKI-1
[7] = test system: UACC-257
[8] = test system: DU-145
[9] = test system: MDA-MB-231
[10] = test system: Hs-578T
[11] = test system: UO-31
[12] = test system: T47D
[13] = test system: M14
[14] = test system: SK-MEL-5
[15] = test system: PC-3
[16] = test system: SNB-19
[17] = test system: OVCAR-3
[18] = test system: KM12
[19] = test system: SF-268
[20] = test system: BT-549

Row | SMILES | GI50 [1] | GI50 [2] | GI50 [3] | GI50 [4] | GI50 [5] | GI50 [6] | GI50 [7] | GI50 [8] | GI50 [9] | GI50 [10] | GI50 [11] | GI50 [12] | GI50 [13] | GI50 [14] | GI50 [15] | GI50 [16] | GI50 [17] | GI50 [18] | GI50 [19] | GI50 [20]
1 | C/C(=N\O)C1CC2C=C(C#N)C1N(Cc1ccccc1)C2 (stereo not given) | > 100 µM (inactive) | > 100 µM (inactive) | > 100 µM (inactive) | 74.5 µM (inactive) | > 100 µM (inactive) | > 100 µM (inactive) | > 100 µM (inactive) | > 100 µM (inactive) | > 100 µM (inactive) | > 100 µM (inactive) | > 100 µM (inactive) | > 100 µM (inactive) | > 100 µM (inactive) | > 100 µM (inactive) | > 100 µM (inactive) | > 100 µM (inactive) | > 100 µM (inactive) | > 100 µM (inactive) | > 100 µM (inactive) | –
2 | Cc1ccc2nc(-c3ccc(-c4nc5ccc(C)cc5o4)c(O)c3)oc2c1 | > 100 µM (inactive) | – | > 100 µM (inactive) | > 100 µM (inactive) | > 100 µM (inactive) | – | – | > 100 µM (inactive) | > 100 µM (inactive) | > 100 µM (inactive) | > 100 µM (inactive) | > 100 µM (inactive) | > 100 µM (inactive) | > 100 µM (inactive) | > 100 µM (inactive) | > 100 µM (inactive) | – | – | > 100 µM (inactive) | –
3 | COC(=O)/C=C/c1ccc2c(c1)CCC2 | – | 26.8 µM (inactive) | 18.7 µM (inactive) | > 100 µM (inactive) | 22.3 µM (inactive) | 17.4 µM (inactive) | 54 µM (inactive) | 43.3 µM (inactive) | 63.2 µM (inactive) | > 100 µM (inactive) | 45 µM (inactive) | 11.3 µM (inactive) | 64.3 µM (inactive) | 30.2 µM (inactive) | 30.4 µM (inactive) | 48.5 µM (inactive) | 17.7 µM (inactive) | – | 42.9 µM (inactive) | –
4 | COC(=O)CCCC1(CCCC(=O)OC)CCCCCCCCC(CCCC(=O)OC)(CCCC(=O)OC)C(=O)C1=O | > 100 µM (inactive) | 43.5 µM (inactive) | 23.9 µM (inactive) | 88.1 µM (inactive) | 9.44 µM (inactive) | 9.84 µM (inactive) | > 100 µM (inactive) | > 100 µM (inactive) | – | 14.8 µM (inactive) | 0.0502 µM (active) | 30.1 µM (inactive) | 70.1 µM (inactive) | 53.1 µM (inactive) | 21.2 µM (inactive) | > 100 µM (inactive) | 22.9 µM (inactive) | 38.8 µM (inactive) | 19.2 µM (inactive) | –
5 | COc1ccc(N2C(=O)c3cc(C)cnc3S2(=O)=O)cc1 | > 100 µM (inactive) | > 100 µM (inactive) | > 100 µM (inactive) | > 100 µM (inactive) | > 100 µM (inactive) | – | – | > 100 µM (inactive) | > 100 µM (inactive) | > 100 µM (inactive) | > 100 µM (inactive) | – | – | > 100 µM (inactive) | > 100 µM (inactive) | > 100 µM (inactive) | > 100 µM (inactive) | > 100 µM (inactive) | > 100 µM (inactive) | > 100 µM (inactive)
6 | Cc1ccc(/C(Cl)=C/C=C(C#N)C#N)cc1 | 4.39 µM (inactive) | 2.59 µM (inactive) | 13.2 µM (inactive) | 3.8 µM (inactive) | 1.83 µM (inactive) | 3.64 µM (inactive) | 2.52 µM (inactive) | 11.3 µM (inactive) | 2.64 µM (inactive) | 2.16 µM (inactive) | 4.58 µM (inactive) | 4.23 µM (inactive) | 2.51 µM (inactive) | 1.8 µM (inactive) | 4.01 µM (inactive) | 7.62 µM (inactive) | 1.93 µM (inactive) | 5.22 µM (inactive) | 5.9 µM (inactive) | –
7 | N#Cc1c(N)[nH]c(=S)c(C#N)c1-c1cccc(Cl)c1 | 19.9 µM (inactive) | 34.2 µM (inactive) | – | 32.5 µM (inactive) | 24.4 µM (inactive) | 65.8 µM (inactive) | 36.3 µM (inactive) | 33.3 µM (inactive) | 29.4 µM (inactive) | 26.7 µM (inactive) | 32.8 µM (inactive) | – | 36.5 µM (inactive) | 20.2 µM (inactive) | 21.8 µM (inactive) | 56.2 µM (inactive) | 26.9 µM (inactive) | 43.3 µM (inactive) | 21.8 µM (inactive) | 39.5 µM (inactive)
8 | CC1=C(C)CC2(C=C(C(C)(C)C)C(=O)C(C(C)(C)C)=C2)SC1 | 17 µM (inactive) | 19.9 µM (inactive) | 16.1 µM (inactive) | 27 µM (inactive) | 28.4 µM (inactive) | 21.5 µM (inactive) | 26.6 µM (inactive) | 39.3 µM (inactive) | 14.3 µM (inactive) | 16.9 µM (inactive) | 15.7 µM (inactive) | 27.9 µM (inactive) | 24.7 µM (inactive) | 13.2 µM (inactive) | 26.7 µM (inactive) | 17.3 µM (inactive) | 17.9 µM (inactive) | 19.1 µM (inactive) | 19.5 µM (inactive) | –

From ChEMBL document CHEMBL1201862, “PubChem BioAssay data set” (2004)
